Assay results taken from ChEMBL document CHEMBL5131513, “Protein S-Nitrosation: Biochemistry, Identification, Molecular Mechanisms, and Therapeutic Applications” (J Med Chem, 2022).
pIC50: −log10 of the molar value.

test system: not listed separately; test: Inhibition of human GSNOR; conditions: not given

pIC50 | Structure (SMILES)
> 7.30 | O=C(O)c1ccc(C#Cc2ccc(O)cc2Cl)c(CCCn2cnnn2)c1
7.64 | Cc1nccn1-c1ccc(-c2ccc(CCC(=O)O)n2-c2ccc(S(N)(=O)=O)cc2)s1
> 7.00 | CCOc1cc([C@@H]2NC(=O)NC(c3cccnc3)=C2c2ccsc2)cc(C(=O)O)c1O
7.15 | Cc1cc(C(N)=O)ccc1-n1c(CCC(=O)O)ccc1-c1ccc(Br)cc1
7.41 | O=C(O)CCc1ccc(-c2ccc(-n3ccnc3)cc2)n1-c1ccc(O)cc1
7.44 | Cc1nccn1-c1ccc(-c2ccc(CCC(=O)O)n2-c2ccc(O)cc2)s1
7.66 | Cc1cc(S(N)(=O)=O)ccc1-n1c(CCC(=O)O)ccc1-c1ccc(-n2ccnc2C)s1
7.25 | COc1cc(Cl)ccc1-c1ccc(CCC(=O)O)n1-c1ccc(C(N)=O)cc1C
> 7.30 | Cc1cc(-n2ccnc2)ccc1-c1cc2sc(C(=O)O)cc2n1-c1ccc(C(N)=O)c(OCC(C)C)c1
> 7.30 | NC(=O)c1ccc(-c2cc(C(=O)O)ccc2C#Cc2ccc(O)cc2Cl)cc1
7.54 | Cc1cc(NS(C)(=O)=O)ccc1-n1c(CCC(=O)O)ccc1-c1ccc(-n2ccnc2)cc1
7.37 | Cc1cc(NS(C)(=O)=O)ccc1-n1c(CCC(=O)O)ccc1-c1ccc(-n2ccnc2C)s1
7.26 | Cc1cc(C(N)=O)ccc1-n1c(CCC(=O)O)ccc1-c1ccc(Cl)cc1O

species on record: Homo sapiens; test: Inhibition of nNOS (unknown origin)/CAPON (unknown origin) protein-protein interaction assessed as residual activity by coimmunoprecipitation assay relative to control; design: concentration or dose not given beside the values; conditions: not given

Activity | Structure (SMILES)
30.5% | COC(=O)[C@H](NC(=O)CC(=O)O)C(C)C
26.3% | COC(=O)CC(=O)N[C@@H](C(=O)OC)C(C)C
49.4% | COC(=O)[C@H](NC(=O)Cc1nnn[nH]1)C(C)C
87.8% | COC(=O)[C@H](NCCC(=O)O)C(C)C
75% | CC(C)[C@@H](NC(=O)CC(=O)O)C(=O)O
76.6% | COC(=O)[C@@H](Cc1ccccc1)NC(=O)CC(=O)O
61.8% | COC(=O)CCC(=O)N[C@@H](C(=O)OC)C(C)C
37.5% | COC(=O)[C@@H](NC(=O)CC(=O)O)C(C)C

test system: not listed separately; test: Inhibition of NMDA-induced nNOS/PSD95 in rat cortical neurons preincubated for 30 mins followed by NMDA addition in presence of glutamate/glycine measured after 24 hrs by immunoprecipitation assay; type: cell-based; conditions: cortical neuron

pIC50 | Structure (SMILES)
3.22 | O=C(O)c1ccc(NCCc2cc(Cl)cc(Cl)c2O)cc1O
3.06 | O=C(O)c1cc(NCc2cc(Cl)cc(Cl)c2O)ccc1O
4.95 | COC(=O)c1ccc(NCc2cc(Cl)cc(Cl)c2O)cc1O
7.09 | O=C(O)c1ccc(NCc2cc(Cl)cc(Cl)c2O)cc1O
6.06 | O=C(O)c1ccc(NCc2cc(F)ccc2O)cc1O
4.40 | O=C(O)c1ccc(NCc2cc(Cl)ccc2O)cc1O
4.99 | O=C(O)c1ccc(NCc2cc(Br)ccc2O)cc1O

test system: not listed separately; test: Inhibition of recombinant nNOS (1 to 299 residues) (unknown origin)/biotin-tagged PSD95 (unknown origin) protein-protein interaction by DELFIA; design: species or system Homo sapiens; conditions: not given

pIC50 | Structure (SMILES)
4.51 | Oc1c(Cl)cc(Cl)cc1CNc1ccc2nn[nH]c2c1
